According to PubChem BioAssay (NCI):
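Five compound concentrations were applied to cells in 96-well plates for 48 hours; endpoints were derived by simple linear interpolation of the resulting dose-response curve. GI50: concentration for 50% inhibition of growth. At the TGI there is no net growth.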

How the values were obtained:
Assay in all cases: inhibition of tumour cell growth, NCI panel, 48 h
DU-145 prostate = tested on: DU-145 prostate
SK-MEL-5 melanoma = tested on: SK-MEL-5 melanoma
HCT-15 colon = tested on: HCT-15 colon
A498 renal = tested on: A498 renal
HT29 colon = tested on: HT29 colon
UO-31 renal = tested on: UO-31 renal
RPMI-8226 leukemia = tested on: RPMI-8226 leukemia
HCT-116 colon = tested on: HCT-116 colon
MOLT-4 leukemia = tested on: MOLT-4 leukemia
IGROV1 ovarian = tested on: IGROV1 ovarian

| Structure (SMILES) | TGI (DU-145 prostate) | TGI (SK-MEL-5 melanoma) | TGI (HCT-15 colon) | TGI (A498 renal) | TGI (HT29 colon) | TGI (UO-31 renal) | TGI (RPMI-8226 leukemia) | TGI (HCT-116 colon) | TGI (MOLT-4 leukemia) | GI50 (DU-145 prostate) | GI50 (SK-MEL-5 melanoma) | GI50 (HCT-15 colon) | GI50 (IGROV1 ovarian) | TGI (IGROV1 ovarian) | GI50 (A498 renal) | GI50 (HT29 colon) | GI50 (UO-31 renal) | GI50 (RPMI-8226 leukemia) | GI50 (HCT-116 colon) | GI50 (MOLT-4 leukemia) |
| --- | --- | --- | --- | --- | --- | --- | --- | --- | --- | --- | --- | --- | --- | --- | --- | --- | --- | --- | --- | --- |
| COC(=O)c1onc(C2OC(C)(C)OC2C(O)COC(c2ccccc2)(c2ccccc2)c2ccccc2)c1C(=O)OC (centres undefined) | > 100 µM | > 100 µM | > 100 µM | > 100 µM | > 100 µM | > 100 µM | > 100 µM | > 100 µM | > 100 µM | – | – | – | – | – | – | – | – | – | – | – |
| Nc1c(C(=O)c2cccc(C(O)CO)c2)cnn1-c1ccc(F)cc1 (centres undefined) | > 25 µM | > 25 µM | > 25 µM | > 25 µM | > 25 µM | > 25 µM | > 25 µM | > 25 µM | > 25 µM | > 25 µM | > 25 µM | > 25 µM | > 25 µM | > 25 µM | > 25 µM | > 25 µM | > 25 µM | > 25 µM | > 25 µM | > 25 µM |
| Cc1nn(C)c2ncnc(N/N=C/c3cccc(O)c3O)c12 | > 100 µM | 2.31 µM | > 100 µM | 16.3 µM | > 100 µM | 2.19 µM | > 100 µM | > 100 µM | 28.7 µM | 0.558 µM | 0.433 µM | 0.225 µM | 1.78 µM | > 30.4 µM | 2.97 µM | 3.94 µM | 0.251 µM | 0.526 µM | 0.568 µM | 0.323 µM |
| CCN1CCN(c2cc(C(=O)Nc3cccc(Nc4ccc5c(OC)cccc5n4)c3)cc(C(F)(F)F)c2)CC1 | 7.33 µM | 5.54 µM | 2.26 µM | 10.5 µM | 1.21 µM | 3.88 µM | 5.32 µM | 3.54 µM | 12.3 µM | 1.88 µM | 1.55 µM | 0.797 µM | 0.924 µM | 5.23 µM | 4.94 µM | 0.572 µM | 0.746 µM | 1.2 µM | 0.872 µM | 0.616 µM |
| COc1cc(Cl)c(CC(=O)c2c[nH]c3ccccc23)cc1OC | > 100 µM | > 100 µM | > 100 µM | > 59.4 µM | > 100 µM | > 43.3 µM | > 100 µM | > 100 µM | > 100 µM | – | – | – | – | > 100 µM | – | – | – | – | – | – |
| O=c1cc(-c2ccccc2)[nH]c2c1CCCC2 | 8.35 µM | 45.4 µM | > 100 µM | 7.83 µM | > 100 µM | > 100 µM | > 100 µM | > 100 µM | > 100 µM | 2.47 µM | 0.883 µM | 2.01 µM | 3.59 µM | > 100 µM | 1.44 µM | 2 µM | 5.49 µM | 4.67 µM | 3.34 µM | 6.16 µM |
| CC1=C(CO)C(=O)O[C@@H]([C@@H](C)[C@H]2CC[C@H]3[C@@H]4C[C@H]5O[C@]56[C@@H](O)C=CC(=O)[C@]6(C)[C@H]4CC[C@]23C)C1 | 0.91 µM | 2.79 µM | 1.94 µM | 1.53 µM | – | 1.31 µM | 37.5 µM | 0.538 µM | 1.72 µM | 0.294 µM | – | – | – | 0.544 µM | 0.408 µM | – | – | – | – | – |
| CN1CCN(C(=O)c2ccc(NC(=O)Nc3ccc(-c4nc(N5CCOCC5)c5cccn5n4)cc3)cc2)CC1 | 12 µM | 0.394 µM | 12.6 µM | 0.0664 µM | – | 5.82 µM | 2.02 µM | 15.2 µM | 2.11 µM | 0.0348 µM | 0.0803 µM | 0.548 µM | 0.0255 µM | 1.2 µM | 0.0172 µM | 0.0487 µM | 0.304 µM | 0.287 µM | 0.0507 µM | 0.0443 µM |
| CCOC(=O)c1c(-c2ccccc2)[n+](=O)c2cc(F)c(F)cc2n1[O-] | 3.55 µM | 3.52 µM | 0.441 µM | 17 µM | 3.27 µM | – | 3.98 µM | 0.584 µM | > 100 µM | 1.78 µM | 1.53 µM | 0.215 µM | 0.701 µM | > 100 µM | 5.02 µM | 1.51 µM | – | 1.02 µM | 0.238 µM | 0.415 µM |
| COc1cc(C2c3cc4c(cc3OC(O)C2C)OCO4)cc(OC)c1OC (centres undefined) | > 100 µM | 9.98 µM | > 100 µM | 50.2 µM | – | 40.7 µM | 2.07 µM | > 69.9 µM | > 31.9 µM | – | – | – | – | 51.1 µM | – | – | – | – | – | – |
| Cc1c(Nc2nccc3cc(CN4CC[C@@H](O)C4)cnc23)cccc1-c1cccc(-c2nc3cc(CN4CC[C@@H](C(=O)O)C4)cc(C#N)c3o2)c1C | > 100 µM | 22.7 µM | 15.8 µM | > 100 µM | 4.64 µM | > 100 µM | 26.5 µM | 23.6 µM | 9.08 µM | > 100 µM | 10.2 µM | 3.79 µM | 8.45 µM | > 100 µM | > 100 µM | 2.09 µM | 4.7 µM | 2.26 µM | 6.06 µM | 2.72 µM |
| O=S(=O)(/N=S(/Nc1ccccc1)C(F)(F)Cl)c1ccccc1 (centres undefined) | > 100 µM | > 100 µM | > 100 µM | > 100 µM | > 100 µM | > 100 µM | > 100 µM | > 100 µM | > 100 µM | – | – | – | – | > 100 µM | – | – | – | – | – | – |
| O=C1OCC2=C1C(c1cccc(C(F)(F)F)c1)c1cc3c(cc1N2CCO)OCCO3 (centres undefined) | > 33.3 µM | 6.97 µM | > 33.3 µM | 3.25 µM | > 33.3 µM | > 33.3 µM | > 33.3 µM | > 33.3 µM | > 33.3 µM | 1.54 µM | 0.997 µM | 0.967 µM | 2.75 µM | > 33.3 µM | 0.866 µM | 1.09 µM | 1.95 µM | 1.39 µM | 1.42 µM | 1.93 µM |
| COc1cc(C)cc(C(=O)/C=C/c2ccccc2)c1O | 29.4 µM | 40.4 µM | 40.9 µM | 33.3 µM | 34.7 µM | 32.4 µM | 63.3 µM | 34.9 µM | 69.8 µM | – | – | – | – | 30.5 µM | – | – | – | – | – | – |
| CCN(CC)CCCNCc1cc(-c2ccccc2)nc2cc(Cl)ccc12 | 24.5 µM | 3.13 µM | 10.2 µM | 6.14 µM | 5.39 µM | 11.5 µM | 5.93 µM | 4.28 µM | 5.46 µM | 11.7 µM | 1.57 µM | 3.1 µM | – | – | 2.36 µM | 2.2 µM | 1.78 µM | 2.46 µM | 1.46 µM | 2.12 µM |
